From PubChem BioAssay (NCI)
Where “and” joins values, the source holds several entries; their conditions need not be identical. Identical values can stand only once.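 Assay format: 96-well plates, 48-hour exposure. The concentration for 50% growth inhibition is given as GI50. TGI: total growth inhibition.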

Legend:
Test in all cases: inhibition of tumour cell growth, NCI panel, 48 h
CAKI-1 renal = test system: CAKI-1 renal
IGROV1 ovarian = test system: IGROV1 ovarian
SNB-78 CNS = test system: SNB-78 CNS
KM20L2 colon = test system: KM20L2 colon
SW-620 colon = test system: SW-620 colon
SN12C renal = test system: SN12C renal
SK-OV-3 ovarian = test system: SK-OV-3 ovarian
HCT-116 colon = test system: HCT-116 colon
HT29 colon = test system: HT29 colon
SK-MEL-2 melanoma = test system: SK-MEL-2 melanoma
HCC-2998 colon = test system: HCC-2998 colon
HOP-92 NSCLC = test system: HOP-92 NSCLC
U251 CNS = test system: U251 CNS
SK-MEL-28 melanoma = test system: SK-MEL-28 melanoma
SF-295 CNS = test system: SF-295 CNS
SF-268 CNS = test system: SF-268 CNS
NCI-H522 lung = test system: NCI-H522 lung
ACHN renal = test system: ACHN renal
LXFL 529 NSCLC = test system: LXFL 529 NSCLC
SNB-19 CNS = test system: SNB-19 CNS
KM12 colon = test system: KM12 colon
A549 NSCLC = test system: A549 NSCLC
OVCAR-5 ovarian = test system: OVCAR-5 ovarian
K-562 leukemia = test system: K-562 leukemia
NCI-H23 lung = test system: NCI-H23 lung
EKVX NSCLC = test system: EKVX NSCLC
786-0 renal = test system: 786-0 renal
SNB-75 CNS = test system: SNB-75 CNS
A498 renal = test system: A498 renal
HL-60(TB) leukemia = test system: HL-60(TB) leukemia
OVCAR-4 ovarian = test system: OVCAR-4 ovarian
SF-539 CNS = test system: SF-539 CNS
TK-10 renal = test system: TK-10 renal
DLD-1 colon = test system: DLD-1 colon
HCT-15 colon = test system: HCT-15 colon
DMS 273 small cell lung = test system: DMS 273 small cell lung
XF 498 CNS = test system: XF 498 CNS
UACC-257 melanoma = test system: UACC-257 melanoma
RXF 393 renal = test system: RXF 393 renal
CCRF-CEM leukemia = test system: CCRF-CEM leukemia
HOP-18 NSCLC = test system: HOP-18 NSCLC
SK-MEL-5 melanoma = test system: SK-MEL-5 melanoma
OVCAR-8 ovarian = test system: OVCAR-8 ovarian
NCI-H226 lung = test system: NCI-H226 lung
UO-31 renal = test system: UO-31 renal
NCI-H460 lung = test system: NCI-H460 lung
MALME-3M melanoma = test system: MALME-3M melanoma
M19-MEL melanoma = test system: M19-MEL melanoma
M14 melanoma = test system: M14 melanoma
HOP-62 NSCLC = test system: HOP-62 NSCLC
DMS 114 small cell lung = test system: DMS 114 small cell lung
UACC-62 melanoma = test system: UACC-62 melanoma
LOX IMVI melanoma = test system: LOX IMVI melanoma
PC-3 prostate = test system: PC-3 prostate
MCF7 breast = test system: MCF7 breast
DU-145 prostate = test system: DU-145 prostate
MDA-N = test system: MDA-N
T-47D breast = test system: T-47D breast
BT-549 breast = test system: BT-549 breast

CN(C)C(=S)/N=c1\ssc(=S)n1-c1ccccc1
TGI (CAKI-1 renal): 33300 nM | TGI (IGROV1 ovarian): 39100 nM | TGI (SNB-78 CNS): 40000 nM | TGI (KM20L2 colon): 33200 nM | TGI (SW-620 colon): 22600 nM | TGI (SN12C renal): 28800 nM | TGI (SK-OV-3 ovarian): > 100000 nM | TGI (HCT-116 colon): 27200 nM | TGI (HT29 colon): 37500 nM | TGI (SK-MEL-2 melanoma): 21600 nM | TGI (HCC-2998 colon): 46300 nM | TGI (HOP-92 NSCLC): 34700 nM | TGI (U251 CNS): 30200 nM | TGI (SK-MEL-28 melanoma): 30500 nM | TGI (SF-295 CNS): 46600 nM | TGI (SF-268 CNS): 32800 nM | TGI (NCI-H522 lung): 27800 nM | TGI (ACHN renal): 32100 nM | TGI (LXFL 529 NSCLC): 25100 nM | TGI (SNB-19 CNS): > 100000 nM | TGI (KM12 colon): 22700 nM | TGI (A549 NSCLC): 81800 nM | TGI (OVCAR-5 ovarian): 29900 nM | TGI (K-562 leukemia): 42600 nM | TGI (NCI-H23 lung): 77500 nM | TGI (EKVX NSCLC): 43600 nM | TGI (786-0 renal): 30500 nM | TGI (SNB-75 CNS): 34100 nM | TGI (A498 renal): 57700 nM | TGI (HL-60(TB) leukemia): 44400 nM | TGI (OVCAR-4 ovarian): 29400 nM | TGI (SF-539 CNS): 30500 nM | TGI (TK-10 renal): 31400 nM | TGI (DLD-1 colon): 26900 nM | TGI (HCT-15 colon): 28900 nM | TGI (DMS 273 small cell lung): 38300 nM | TGI (XF 498 CNS): 27900 nM | TGI (UACC-257 melanoma): 29600 nM | TGI (RXF 393 renal): 33000 nM | TGI (CCRF-CEM leukemia): > 100000 nM | TGI (HOP-18 NSCLC): > 100000 nM | TGI (SK-MEL-5 melanoma): > 100000 nM | TGI (OVCAR-8 ovarian): 28500 nM | TGI (NCI-H226 lung): 26900 nM | TGI (UO-31 renal): 44100 nM | TGI (NCI-H460 lung): 33100 nM | TGI (MALME-3M melanoma): 31000 nM | TGI (M19-MEL melanoma): 30400 nM | TGI (M14 melanoma): 28600 nM | TGI (HOP-62 NSCLC): 74200 nM | TGI (DMS 114 small cell lung): 31100 nM | TGI (UACC-62 melanoma): 30600 nM

CC[C@@]1(O)C[C@H](OC2CC(N(C)C)C(OC3CC(O)C(OC4CCC(=O)C(C)O4)C(C)O3)C(C)O2)c2c(cc3c(c2O)C(=O)c2c(O)ccc(O)c2C3=O)[C@H]1C(=O)OC (some centres not stated)
GI50 (SNB-78 CNS): 3.11 nM | GI50 (KM20L2 colon): 0.0667 nM | TGI (KM20L2 colon): 78.1 nM and 41 nM and 200 nM | GI50 (SK-OV-3 ovarian): 22.1 nM | GI50 (HCT-116 colon): 0.054 nM | TGI (HCT-116 colon): < 0.1 nM | TGI (HT29 colon): 16.2 nM [middle of 4 runs] | TGI (SK-MEL-2 melanoma): 16.6 nM and 19.8 nM and 24.3 nM | TGI (HOP-92 NSCLC): 35.3 nM and 71.3 nM and 92 nM | TGI (ACHN renal): 16.4 nM and 25.8 nM and 22.5 nM | GI50 (LXFL 529 NSCLC): 0.0112 nM | TGI (LOX IMVI melanoma): 0.668 nM | TGI (KM12 colon): 31.4 nM and 12.6 nM and 113 nM | GI50 (A549 NSCLC): 0.449 nM | TGI (OVCAR-5 ovarian): 22.1 nM and 65 nM | TGI (K-562 leukemia): 119 nM | TGI (A498 renal): 14.2 nM and 24.5 nM | TGI (DLD-1 colon): 73.7 nM | TGI (HCT-15 colon): 5.81 nM and 29.8 nM | TGI (DMS 273 small cell lung): 14 nM and 19.8 nM | GI50 (UACC-257 melanoma): < 0.1 nM | TGI (PC-3 prostate): 6.2 nM | TGI (CCRF-CEM leukemia): 12 nM and 47.8 nM | GI50 (HOP-18 NSCLC): 11700 nM | TGI (HOP-18 NSCLC): 24100 nM | TGI (NCI-H226 lung): 6.41 nM and 27.5 nM | TGI (UO-31 renal): 0.508 nM and < 0.1 nM | TGI (MCF7 breast): 101 nM | GI50 (NCI-H460 lung): 0.0541 nM | TGI (NCI-H460 lung): 0.343 nM and < 0.1 nM | TGI (DU-145 prostate): 38 nM | GI50 (M19-MEL melanoma): 0.0125 nM | TGI (M19-MEL melanoma): 12.1 nM and 12.9 nM and 33.6 nM | TGI (M14 melanoma): 18.5 nM and 37.4 nM and 152 nM | TGI (MDA-N): 2.59 nM | GI50 (DMS 114 small cell lung): 0.291 nM | TGI (DMS 114 small cell lung): 22 nM and 30.6 nM and 34.7 nM | TGI (T-47D breast): 5.69 nM and 12.1 nM | TGI (UACC-62 melanoma): 12 nM and 11.8 nM and 20.5 nM | TGI (BT-549 breast): 9.27 nM and 2.76 nM
